# In US4380512A, “2β-Chloromethyl-2α-methylpenam-3α-carboxylic acid sulfone and salts and esters thereof” (Bristol-Myers Company, priority 1981, dated 1983):
# Counter-ions that a name gives are not always drawn. Like-named read-outs stand apart in the source and are kept apart here.
# How the values were obtained:
# E. coli A9675 = test: Therapeutic efficacy of BL-P2043, BL-P2044 and components, oral, infected mice (Table 13); assay type: in vivo; conditions: Escherichia coli, po; E. coli A9675, p.o.; pro-drugs and mixtures 50:38; read-out: PD50/Treatment
# β-lactamase enzyme RTEM = conditions: cited from earlier work
# in vivo [1] = conditions: mouse, po, 50 mg/kg; for concentration at 0.5 h / concentration at 1 h / concentration at 2 h: Blood Level
# Bacteroides species = test: Anti-Bacteroides activity, MIC by agar dilution (Table 2); assay type: cell-based
# B. thetaiotaomicron = test: as above; assay type: cell-based; conditions: A22279, beta-lactamase +
# Experimental: *Minimum inhibitory concentration (MIC) determined by the agar dilution
# method using 50X dilutions of 24 hour cultures as inocula dispensed by th
# Steer's inoculator. Assay medium composed of Brucella Agar plus 5% laked
# sheep blood and 10 mcg/ml vitamin K.
# [2] = mouse, in vivo, po, 50 mg/kg
# in vivo [3] = conditions: mouse, po
# Description: Compounds were solubilized in propylene glycol, except for the Hetacillin
# [4] = Blood levels and half-life of BL-P2024 after oral administration to mice (Table 5); assay type: in vivo; conditions: 100 mg/kg oral
# S. aureus = test: Therapeutic efficacy as mutual pro-drugs or mixtures, oral, infected mice (Table 12); assay type: in vivo; conditions: Staphylococcus aureus, pro-drugs and their mixtures 50:38, read-out: PD50/Treatment
# Experimental: (§1) ^a Treatment schedule: Mice were infected i.p. with about 5 ×
# (§2) 10^6 organisms of E. coli in 4% mucin and 1 × 10^9 of S.
# (§3) aureus in 2% mucin. Drugs were administered p.o. at 0 and 2 hour
# (§4) ^b Mutual ProDrugs: BLP2048 (hetacillin: BLP2013) and BLP2049
# (§5) (hetaamoxicillin: BLP2013) as well as their respective mixtures were
# (§6) administered in a 50:38 ratio. PD50 values are averages of 2 to 3
# (§7) tests for E. coli and 1 to 2 tests for S. aureus.
# (§8) averages of 1 to 2 tests for E. coli and a single test for S. aureus.
# E. coli = test: as above; assay type: in vivo; conditions: Escherichia coli, pro-drugs and their mixtures 50:38, read-out: PD50/Treatment
# Experimental: as §1, §2, §3, §4, §5, §6, §7, §8
# [5] = tested on: β-lactamase-producing strains; conditions: in vitro and in vivo; cited from earlier work
# M. morganii = test: Antibacterial activity of ceforanide alone and with BL-P2013, MIC (Table 11); assay type: cell-based; conditions: Morganella morganii, geometric mean
# Description: (§9) ^a Geometric mean value where applicable.
# P. aeruginosa = test: as above; assay type: cell-based; conditions: Pseudomonas aeruginosa
# Description: as §9
# E. aerogenes = test: as above; assay type: cell-based
# Description: as §9
# Citrobacter sp. = test: as above; assay type: cell-based
# Description: as §9
# P. stuartii = test: as above; assay type: cell-based; conditions: Providencia stuartii
# Description: as §9
# P. vulgaris = test: as above; assay type: cell-based; conditions: Proteus vulgaris
# Description: as §9
# P. mirabilis = test: as above; assay type: cell-based; conditions: Proteus mirabilis
# Description: as §9
# C. freundii = test: as above; assay type: cell-based; conditions: Citrobacter freundii
# Description: as §9
# S. faecalis = test: as above; assay type: cell-based; conditions: Enterococcus faecalis
# Description: as §9
# P. rettgeri = test: as above; assay type: cell-based; conditions: Providencia rettgeri
# Description: as §9
# S. marcescens = test: as above; assay type: cell-based
# Description: as §9
# E. cloacae = test: as above; assay type: cell-based; conditions: Enterobacter cloacae
# Description: as §9
# [6] = man, oral; cited from earlier work
structure (smiles),measurement,setting,value
"CC1(C)SC2C(NC(=O)C(N)c3ccc(O)cc3)C(=O)N2C1C(=O)OCOC(=O)C1N2C(=O)CC2S(=O)(=O)C1(C)CCl (single isomer, unassigned) [BL-P2044, Hydrochloride]",ED50,E. coli A9675,25 mg/kg
"CC1(C)[C@H](C(=O)O)N2C(=O)[C@@H](Br)[C@H]2S1(=O)=O [(2S,5R,6S)-6β-Bromo-3,3-dimethyl-7-oxo-4-thia-1-azabicyclo[3.2.0]heptane-2-carboxylic acid, S,S-dioxide]",inhibition of β-lactamase,β-lactamase enzyme RTEM,inhibit the action of the β-lactamase enzyme RTEM
"CC1(C)S[C@@H]2[C@H](NC(=O)[C@H](N)c3ccc(O)cc3)C(=O)N2[C@H]1C(=O)O [Amoxicillin, reference compound]",AUC,in vivo [1],15400 ng·h/mL
same,concentration at 0.5 h,in vivo [1],11000 ng/mL
same,concentration at 1 h,in vivo [1],9000 ng/mL
same,concentration at 2 h,in vivo [1],3100 ng/mL
same,MIC,"Bacteroides species; A20929, beta-lactamase +",16 µg/mL
same,MIC,"Bacteroides species; A20931, beta-lactamase +",16 µg/mL
same,MIC,"Bacteroides species; A21954, beta-lactamase +",16 µg/mL
same,MIC,B. thetaiotaomicron,16 µg/mL
same,Blood Level,[2]; 0.5 h,7000 ng/mL
same,Blood Level,[2]; 1 h,5000 ng/mL
same,Blood Level,[2]; 2 h,2200 ng/mL
same,AUC,in vivo [3]; 50 mg/kg,9500 ng·h/mL
same,concentration at 0.5 h,in vivo [3]; 50 mg/kg,7000 ng/mL
same,concentration at 1 h,in vivo [3]; 50 mg/kg,5000 ng/mL
same,concentration at 2 h,in vivo [3]; 50 mg/kg,2200 ng/mL
"CC1(C)S[C@@H]2[C@H](NC(=O)[C@H](N)c3ccccc3)C(=O)N2[C@H]1C(=O)O [Ampicillin, reference compound]",AUC,in vivo [1],6200 ng·h/mL
same,concentration at 0.5 h,in vivo [1],4000 ng/mL
same,concentration at 1 h,in vivo [1],3300 ng/mL
same,concentration at 2 h,in vivo [1],1700 ng/mL
same,ED50,E. coli A9675,> 400 mg/kg
same,Blood Level,[2]; 0.5 h,3200 ng/mL
same,Blood Level,[2]; 1 h,2600 ng/mL
same,AUC,in vivo [3]; 50 mg/kg,6200 ng·h/mL
same,concentration at 0.5 h,in vivo [3]; 50 mg/kg,4000 ng/mL
same,concentration at 1 h,in vivo [3]; 50 mg/kg,3300 ng/mL
same,concentration at 2 h,in vivo [3]; 50 mg/kg,1700 ng/mL
"CC(C)(C)C(=O)OCOC(=O)C1N2C(=O)CC2S(=O)(=O)C1(C)CCl (stereo not drawn) [BL-P2024, Pivaloyloxymethyl 2β-Chloromethyl-2α-methylpenam-3α-carboxylate Sulfone]",Blood Level,[4]; 15 min,12300 ng/mL
same,Blood Level,[4]; 30 min,12200 ng/mL
same,Blood Level,[4]; 60 min,9400 ng/mL
same,Blood Level,[4]; 120 min,5700 ng/mL
"CC1(C)SC2C(NC(=O)C(N)c3ccccc3)C(=O)N2C1C(=O)OCOC(=O)C1N2C(=O)CC2S(=O)(=O)C1(C)CCl [BL-P2043, 6-[(R)-2-Amino-2-phenylacetamido]-3,3-dimethyl-7-oxo-4-thia-1-azabicyclo[3.2.0]heptane-2-carbonyloxymethyl 2β-chloromethyl-2-α-methylpenam-3α-carboxylate sulfone]",ED50,E. coli A9675,44 mg/kg
"CC1(C)SC2C(N3C(=O)C(c4ccccc4)NC3(C)C)C(=O)N2C1C(=O)OCOC(=O)C1N2C(=O)CC2S(=O)(=O)C1(C)CCl [BL-P2048, 2β-Chloromethyl-2α-methyl-1,1-dioxopenam-3-carbonyloxymethyl 6-(D-2,2-dimethyl-5-oxo-4-phenyl-1-imidazolidinyl)penicillanate Hydrochloride]",ED50,"S. aureus; S. aureus A20379, p.o.",400 mg/kg
same,ED50,"S. aureus; S. aureus A-9606, p.o.",274 mg/kg
same,ED50,"E. coli; E. coli A20649, p.o.",89 mg/kg
same,ED50,"E. coli; E. coli A21223, p.o.",32 mg/kg
same,ED50,"E. coli; E. coli A-9675, p.o.",49 mg/kg
same,Blood Level,"in vivo [3]; 38 mg/kg, 15 min",10000 ng/mL
same,Blood Level,"in vivo [3]; 38 mg/kg, 120 min",900 ng/mL
same,Blood Level,"in vivo [3]; 38 mg/kg, 150 min",600 ng/mL
same,Blood Level,"in vivo [3]; 50 mg/kg, 15 min",8000 ng/mL
"CC1(C)SC2C(N3C(=O)C(c4ccc(O)cc4)NC3(C)C)C(=O)N2C1C(=O)OCOC(=O)C1N2C(=O)CC2S(=O)(=O)C1(C)CCl [BL-P2049, 2β-Chloromethyl-2α-methyl-1,1-dioxopenam-3-carbonyloxymethyl 6-[D-2,2-dimethyl-5-oxo-4-(4-hydroxyphenyl)-1-imidazolidinyl]-penicillanate Hydrochloride]",ED50,"S. aureus; S. aureus A20379, p.o.",> 400 mg/kg
same,ED50,"S. aureus; S. aureus A-9606, p.o.",> 374 mg/kg
same,ED50,"E. coli; E. coli A20649, p.o.",43 mg/kg
same,ED50,"E. coli; E. coli A21223, p.o.",32 mg/kg
same,ED50,"E. coli; E. coli A-9675, p.o.",28 mg/kg
same,Blood Level,"in vivo [3]; 38 mg/kg, 15 min",4100 ng/mL
same,Blood Level,"in vivo [3]; 38 mg/kg, 30 min",4600 ng/mL
same,Blood Level,"in vivo [3]; 38 mg/kg, 60 min",3100 ng/mL
same,Blood Level,"in vivo [3]; 38 mg/kg, 90 min",2200 ng/mL
same,Blood Level,"in vivo [3]; 38 mg/kg, 120 min",1600 ng/mL
same,Blood Level,"in vivo [3]; 38 mg/kg, 150 min",1200 ng/mL
same,Blood Level,"in vivo [3]; 50 mg/kg, 15 min",3700 ng/mL
same,Blood Level,"in vivo [3]; 50 mg/kg, 30 min",4700 ng/mL
same,Blood Level,"in vivo [3]; 50 mg/kg, 60 min",4700 ng/mL
same,Blood Level,"in vivo [3]; 50 mg/kg, 90 min",4100 ng/mL
same,Blood Level,"in vivo [3]; 50 mg/kg, 120 min",3700 ng/mL
same,Blood Level,"in vivo [3]; 50 mg/kg, 150 min",3300 ng/mL
CC1(C)[C@H](C(=O)O)N2C(=O)C[C@H]2S1(=O)=O [CP-45899],potentiation of ampicillin,[5],potentiates the in vitro and in vivo activities of ampicillin versus β-lactamase-producing strains
NCc1ccccc1CC(=O)N[C@@H]1C(=O)N2C(C(=O)O)=C(CSc3nnnn3CC(=O)O)CS[C@H]12 [Ceforanide],MIC,M. morganii; 8 strains (second line),> 125 µg/mL
same,MIC,"M. morganii; 8 strains (first line), read-out: MIC",65 µg/mL
same,MIC,P. aeruginosa,125 µg/mL
same,MIC,"E. aerogenes; 5 strains, geometric mean",> 125 µg/mL
same,MIC,E. aerogenes; Klebsiella aerogenes,> 125 µg/mL
same,MIC,"E. aerogenes; Klebsiella aerogenes, 4 strains, geometric mean, read-out: MIC",3.4 µg/mL
same,MIC,Citrobacter sp.,> 125 µg/mL
same,MIC,P. stuartii; 1 strain,0.35 µg/mL
same,MIC,"P. stuartii; 4 strains, geometric mean",45 µg/mL
same,MIC,P. vulgaris,> 125 µg/mL
same,MIC,"P. vulgaris; 1 strain, read-out: MIC",0.5 µg/mL
same,MIC,"P. vulgaris; 9 strains, geometric mean, read-out: MIC",85 µg/mL
same,MIC,P. mirabilis; 1 strain,0.25 µg/mL
same,MIC,"P. mirabilis; 3 strains, geometric mean",25.4 µg/mL
same,MIC,C. freundii,> 125 µg/mL
same,MIC,S. faecalis,> 125 µg/mL
same,MIC,P. rettgeri; 1 strain (first line),0.06 µg/mL
same,MIC,P. rettgeri; 1 strain (second line),16 µg/mL
same,MIC,"S. marcescens; 6 strains, geometric mean",125 µg/mL
same,MIC,S. marcescens; Serratia marcescens,125 µg/mL
same,MIC,E. cloacae; 1 strain (first line),22.6 µg/mL
same,MIC,E. cloacae; 1 strain (third line),> 125 µg/mL
same,MIC,"E. cloacae; 14 strains, geometric mean",> 125 µg/mL
CC1(C)S[C@@H]2[C@H](NC(=O)[C@H](N)c3ccccc3)C(=O)N2[C@H]1C(=O)OCOC(=O)[C@@H]1N2C(=O)C[C@H]2S(=O)(=O)C1(C)C [ester 3],absorption from the gastro-intestinal tract,[6],excellently absorbed from the gastro-intestinal tract
same,blood and tissue levels of antibiotic and β-lactamase inhibitor,[6],high blood and tissue levels of antibiotic and β-lactamase inhibitor in a balanced ratio
same,hydrolysis after absorption,[6],hydrolyzed with simultaneous liberation of the active components
CC1(C)S[C@@H]2[C@H](N=CN3CCCCCC3)C(=O)N2[C@H]1C(=O)OCOC(=O)[C@@H]1N2C(=O)C[C@H]2S(=O)(=O)C1(C)C [ester 4],absorption from the gastro-intestinal tract,[6],excellently absorbed from the gastro-intestinal tract
same,blood and tissue levels of antibiotic and β-lactamase inhibitor,[6],high blood and tissue levels of antibiotic and β-lactamase inhibitor in a balanced ratio
same,hydrolysis after absorption,[6],hydrolyzed with simultaneous liberation of the active components
